Patent US20250049786A1, “DOPAMINE D3/D2 RECEPTOR MODULATING COMPOUNDS” (Richter Gedeon Nyrt., priority 2023, published 2025)

Key:
[1] = Thermodynamic solubility study (37° C., 4 hours); format: physicochemical; settings: PBS pH = 7.4, 4 hours
Procedure: The resulted mixtures/oversaturated solutions are shaken at 37° C. for 4 hrs (to the solution equilibrium) and are filtrated on a Millipore MultiSreen Filter Plate (0.45 μm). Concentrations of the filtrates are determined by LC/UV/MS based on a 5-point calibration. (When the solid material dissolved totally in the aqueous test medium the result should be considered as a minimal value.) Results are shown in Table 2.

[2] = biological target: T1, human D2L receptors (Homo sapiens (Human), UniProt P14416); experiment: Competitive binding assay at human D2L receptors using [3H]raclopride; settings: CHO-K1 membranes, 2 nM [3H]raclopride
T1 sequence (P14416 whole entry): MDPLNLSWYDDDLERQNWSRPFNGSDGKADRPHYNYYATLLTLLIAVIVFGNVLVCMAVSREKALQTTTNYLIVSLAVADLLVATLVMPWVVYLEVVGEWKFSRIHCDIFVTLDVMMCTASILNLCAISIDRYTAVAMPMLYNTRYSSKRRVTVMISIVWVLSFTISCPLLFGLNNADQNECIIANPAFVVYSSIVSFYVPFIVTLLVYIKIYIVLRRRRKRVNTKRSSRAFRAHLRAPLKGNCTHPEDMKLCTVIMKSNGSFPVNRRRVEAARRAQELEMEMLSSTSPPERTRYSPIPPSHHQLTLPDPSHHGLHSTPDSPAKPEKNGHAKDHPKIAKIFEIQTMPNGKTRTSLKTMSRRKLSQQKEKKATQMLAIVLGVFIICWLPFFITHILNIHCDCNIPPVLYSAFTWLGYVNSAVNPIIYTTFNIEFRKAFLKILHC
Procedure: (§1) The membrane preparation was then aliquoted and stored at −70° C.

[3] = Thermodynamic solubility study (RT, 24 hours); format: physicochemical; settings: PBS pH = 7.4, 24 hours
Procedure: The resulted mixtures were shaken at room temperature (RT) for 24 hrs (to the solution equilibrium) and were filtrated on a Millipore MultiSreen Filter Plate (0.45 μ). Concentrations of the filtrates were determined by LC/UV/MS based on a 5-point calibration. (When the solid material dissolved totally in the aqueous test medium the result should be considered as a minimal value.) Results are shown in Table 2.

[4] = biological target: T1, human D2L receptors; experiment: Competitive binding assay at human D2L receptors using [3H]spiperone; settings: CHO-K1 membranes, 0.16 nM [3H]spiperone
Procedure: CHO-K1 cells expressing human recombinant D2L receptors were washed with phosphate-buffered saline (PBS). Cells were scraped from the plates and centrifuged at 1000×g. Cells were disrupted using a Teflon® pestle homogenizer in buffer containing 25 mM Tris-HCl, pH=7.4, 6 mM MgCl2, 1 mM EDTA, 10 mM phenylmethylsulfonyl fluoride (PMSF). The resulting suspension was centrifuged at 1000×g. The supernatant was collected and centrifuged at 41,000×g. The supernatant was discarded, and the pellet was resuspended in above buffer. The membrane preparation was then aliquoted and stored at −70° C.
Non-specific binding (NSB) was determined in the presence of 10 μM haloperidol (Sigma-Aldrich). After incubation, samples were filtered over UniFilter® GF/C plates (PerkinElmer), washed and Microscint™-20 scintillation cocktail was added. Radioactivity was determined with a MicroBeta^2® microplate counter (PerkinElmer).
From scintillation counts, NSB was subtracted to yield specific binding which was normalized to vehicle-treated samples and converted to displacement % values. IC50 values were determined by a non-linear, least squares regression analysis using MathIQ™ (ID Business Solutions Ltd., Surrey, UK).

[5] = biological target: T2, human D3 receptors (Homo sapiens (Human), UniProt P35462); experiment: Competitive binding assay at human D3 receptors using [3H]spiperone; settings: CHO-K1 membranes, 0.7 nM [3H]spiperone
T2 sequence (P35462 whole entry): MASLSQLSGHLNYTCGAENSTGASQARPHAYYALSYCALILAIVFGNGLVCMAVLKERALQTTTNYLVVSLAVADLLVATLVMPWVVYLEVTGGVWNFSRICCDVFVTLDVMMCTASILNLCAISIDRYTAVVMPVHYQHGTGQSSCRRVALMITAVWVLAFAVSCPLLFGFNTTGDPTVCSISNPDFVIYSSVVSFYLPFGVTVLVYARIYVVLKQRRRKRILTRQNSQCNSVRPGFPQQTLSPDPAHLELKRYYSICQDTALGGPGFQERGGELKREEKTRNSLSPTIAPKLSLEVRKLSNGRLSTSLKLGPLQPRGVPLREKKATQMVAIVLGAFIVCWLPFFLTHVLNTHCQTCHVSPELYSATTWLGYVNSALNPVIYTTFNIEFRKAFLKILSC
Procedure: Cells were scraped from the plates and centrifuged at 1000×g. […] The supernatant was collected and centrifuged at 41,000×g. The supernatant was discarded, and the pellet was resuspended in above buffer.
IC50 values were determined by a non-linear, least squares regression analysis using MathIQ™ (ID Business Solutions Ltd., Surrey, UK).

[6] = biological target: human 5-HT2A receptor (Homo sapiens (Human), UniProt P28223); experiment: Competitive binding assay at human 5-HT2A receptors ([3H]ketanserin); settings: CHO-K1 membranes, 1 nM [3H]ketanserin
Chain of human 5-HT2A receptor (P28223 whole entry): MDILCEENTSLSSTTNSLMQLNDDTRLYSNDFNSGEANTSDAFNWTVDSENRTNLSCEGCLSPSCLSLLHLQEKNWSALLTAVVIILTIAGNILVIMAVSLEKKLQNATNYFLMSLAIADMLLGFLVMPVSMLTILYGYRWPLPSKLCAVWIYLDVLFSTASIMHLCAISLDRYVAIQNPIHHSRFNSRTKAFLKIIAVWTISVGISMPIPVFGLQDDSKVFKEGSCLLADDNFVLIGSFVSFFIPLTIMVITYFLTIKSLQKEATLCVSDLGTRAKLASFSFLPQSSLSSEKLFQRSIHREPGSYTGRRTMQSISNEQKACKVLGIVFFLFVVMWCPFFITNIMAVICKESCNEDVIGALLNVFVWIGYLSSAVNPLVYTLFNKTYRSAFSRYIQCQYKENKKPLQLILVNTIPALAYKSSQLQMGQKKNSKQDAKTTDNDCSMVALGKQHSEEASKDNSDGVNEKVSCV
Procedure: Radioactivity was determined with a MicroBeta^2® microplate counter (PerkinElmer).

[7] = biological target: T2, human D3 receptors; experiment: Competitive binding assay at human D3 receptors using [3H]raclopride; settings: CHO-K1 membranes, ca. […] [3H]raclopride
Procedure: as §1

[8] = test system: Phencyclidine-induced hypermotility in rats; experiment: Phencyclidine-induced hypermotility in rats; format: in vivo, rat; settings: minimum effective dose, time spent with ambulation over one hour
Procedure: Spontaneous locomotor activity was measured using a six-channel activity monitor manufactured by Experimetria Ltd. (Budapest, HU). […] Additional arrays of photocells (30 pairs) were placed along opposite sides of the cage at different heights (6.5 cm, 12 cm, 18 cm and 23 cm) in order to detect rearing responses.
Test compounds were administered to study animals either orally or subcutaneously, with ten animals per treatment group. In these studies, male Harlan-Wistar rats (Toxi-Coop, Budapest, HU) weighing 190-210 grams were used. After oral administration of test compound or vehicle, animals were individually habituated to the activity monitors for 30 minutes. In the cases of subcutaneous administration of test compounds, rats were first habituated for 15 minutes to the activity monitors, then treated with the test compound or vehicle followed by replacing them into the activity monitors for an additional 15-minute period of habituation. […]
Data were analyzed using GraphPad® Prism® 9 software (GraphPad, San Diego, CA, USA). […] Drug effect was evaluated using Analysis of Variance (ANOVA, or Welch's ANOVA when appropriate) followed by Dunnett's multiple comparisons test. When appropriate, the ED50 value was determined from percent inhibition data from linear regression analysis.

Structure (SMILES)	Thermodynamic sol. [1] [µM]	D2L pKi [3H]raclopride [2]	Thermodynamic sol. [3] [µM]	D2L pKi [3H]spiperone [4]	D3 pKi [3H] spiperone [5]	5-HT2A pKi [6]	D3 pKi [3H]raclopride [7]	PCP (MED, mg/kg) [8] [mg/kg]
COCN(C)C(=O)N[C@H]1CC[C@H](CCN2CCN(c3cccc(Cl)c3Cl)CC2)CC1 [Example 2, N′-[(1r,4r)-4-{2-[4-(2,3-dichlorophenyl)piperazin-1-yl]ethyl}cyclohexyl]-N-(methoxymethyl)-N-methylurea]	58.93 ± 5.32	8.90	50.93 ± 2.3	8.93	9.77	7.81	9.15	
CCCOCN(C)C(=O)N[C@H]1CC[C@H](CCN2CCN(c3cccc(Cl)c3Cl)CC2)CC1 [Example 3, N′-[(1r,4r)-4-{2-[4-(2,3-dichlorophenyl)piperazin-1-yl]ethyl}cyclohexyl]-N-methyl-N-(propoxymethyl)urea]	30.50 ± 3.06	8.94	39.68 ± 2.15	8.93	9.74			
CCOCN(C)C(=O)N[C@H]1CC[C@H](CCN2CCN(c3cccc(Cl)c3Cl)CC2)CC1 [Example 1, N′-[(1r,4r)-4-{2-[4-(2,3-dichlorophenyl)piperazin-1-yl]ethyl}cyclohexyl]-N-(ethoxymethyl)-N-methylurea]	10.9 ± 0.3		45.3 ± 0.6			7.64		0.4
CN(C)C(=O)N[C@H]1CC[C@H](CCN2CCN(c3cccc(Cl)c3Cl)CC2)CC1 [Ref. Ex. 2, N′-[(1r,4r)-4-{2-[4-(2,3-dichlorophenyl)piperazin-1-yl]ethyl}cyclohexyl]-N,N-dimethylurea, reference compound]								0.1
CCCN(C)C(=O)N[C@H]1CC[C@H](CCN2CCN(c3cccc(Cl)c3Cl)CC2)CC1 [Ref. Ex. 1, N-[(1r,4r)-4-{2-[4 (2,3-dichlorophenyl)piperazin-1-yl]ethyl}cyclohexyl]-N-methyl-N-propylurea, reference compound]	4.9 ± 0.3		6.2 ± 0.3					
